Test results published in ChEMBL document CHEMBL1156236, “Trypanoside, anti-tuberculosis, leishmanicidal, and cytotoxic activities of tetrahydrobenzothienopyrimidines” (Bioorg Med Chem, 2010).
In brackets after ≈: the same amount, converted by molar mass.

Columns and labels:
NCI-H460 = assay: Cytotoxicity against human NCI-H460 cells; type: functional
Leishmania amazonensis = assay: Antileishmanial activity against Leishmania amazonensis MHOM/BR/76/LTB-012 amastigotes infected BALB/c mouse macrophages after 48 hrs by MTT assay; type: functional, organism-based; details: MHOM/BR/76/LTB-012, 48 h
[1] = Selectivity index, ratio of IC50 for african green monkey Vero cells to IC50 for Trypanosoma cruzi tulahuen C4; details: Vero cells
HT-29 = assay: Cytotoxicity against human HT-29 cells; type: functional
K562 = assay: Cytotoxicity against human K562 cells; type: functional
MCF7 = assay: Cytotoxicity against human MCF7 cells; type: functional
[2] = Selectivity index, ratio of IC50 for BALB/c mouse macrophages to IC50 for Leishmania amazonensis MHOM/BR/76/LTB-012
[3] = tested on: Mycobacterium tuberculosis; assay: Antitubercular activity against Mycobacterium tuberculosis H37Rv ATCC 27294 after 7 days by microplate alamar blue assay; type: functional; details: H37Rv ATCC 27294, 168 h
DU-145 = assay: Cytotoxicity against human DU145 cells; type: functional
M14 = assay: Cytotoxicity against human M14 cells; type: functional
[4] = Cytotoxicity against BALB mouse 3T3 cells; type: cell-based; details: BALB 3T3 cells
Trypanosoma cruzi = assay: Antitrypanosomal activity against Trypanosoma cruzi tulahuen C4 trypomastigotes infected in african green monkey Vero cells assessed as CPRG cleavage after 120 hrs by microplate reader; type: functional, organism-based
[5] = Cytotoxicity against BALB/c mouse macrophages after 48 hrs by trypan blue dye exclusion method; type: cell-based; details: Macrophage
Vero = assay: Cytotoxicity against african green monkey Vero cells after 72 hrs by MTS assay; details: Chlorocebus sabaeus, Vero, 72 h
[6] = Selectivity index, ratio of IC50 for african green monkey Vero cells to MIC for Mycobacterium tuberculosis H37Rv ATCC 27294 by microplate alamar blue assay; type: functional

SMILES | GI50 (NCI-H460) | IC50 (Leishmania amazonensis) | selectivity ratio [1] | GI50 (HT-29) | GI50 (K562) | GI50 (MCF7) | Ratio IC50 [2] | MIC [3] | GI50 (DU-145) | GI50 (M14) | GI50 [4] | IC50 (Trypanosoma cruzi) | IC50 [5] | IC50 (Vero) | Ratio IC50 [6]
CC(C)c1ccc(/C=N/Nc2ncnc3sc4c(c23)CCCC4)cc1 | 5.9 µM | 3.6 µM | 0.5 | 5.9 µM | 4.1 µM | 5.2 µM | 2.3 | > 250 µM | 10.8 µM | 17.8 µM | 9.4 µM | 5.2 µM | 8.4 µM | 2.9 µM | 
C(=N\Nc1ncnc2sc3c(c12)CCCC3)/c1ccc2ccccc2c1 | 20.8 µM | 39 µM | 1.1 | 19.4 µM | 6.2 µM | 9.3 µM | 0.4 | > 250 µM | 24.1 µM | 35.2 µM | 27.9 µM | 13.3 µM | 15.9 µM | 13.9 µM | 
Oc1ccc(/C=N/Nc2ncnc3sc4c(c23)CCCC4)cc1 | 14.9 µM | 41.6 µM | 1.1 | 19.5 µM | 15.8 µM | 17 µM | 4.3 | 72.1 µM (≈ 23.4 µg/mL) | 20.8 µM | 17.2 µM | 6.6 µM | 11.3 µM | 178 µM | 12.3 µM | 0.6
COc1ccc(/C=N/Nc2ncnc3sc4c(c23)CCCC4)c(OC)c1 | 29.5 µM | 33.2 µM | 1.8 | 20 µM | 7.9 µM | 21.1 µM | 4.3 | > 250 µM | 20 µM | 94.4 µM | 19.9 µM | 18.5 µM | 144 µM | 32.6 µM | 
C(=N\Nc1ncnc2sc3c(c12)CCCC3)/c1ccccc1 | 18.2 µM | 43.7 µM | 1.8 | 12.5 µM | 13.2 µM | 11.2 µM | 0.6 | 75.9 µM (≈ 23.4 µg/mL) | 20 µM | 18 µM | 21.7 µM | 14.4 µM | 28.3 µM | 25.9 µM | 0.5
Clc1ccccc1/C=N/Nc1ncnc2sc3c(c12)CCCC3 | 62.9 µM | 2.2 µM | 0.7 | 56.5 µM | 19.8 µM | 22 µM | 5 | 124 µM (≈ 42.6 µg/mL) | 77.8 µM | > 170 µM | 88.1 µM | 21.3 µM | 11.2 µM | 14.6 µM | 0.7
Fc1ccccc1/C=N/Nc1ncnc2sc3c(c12)CCCC3 | > 250 µM | 3.3 µM | 1.7 | > 250 µM | 81.2 µM | > 250 µM | 3.1 | > 300 µM | > 250 µM | > 250 µM | > 250 µM | 10.8 µM | 10.2 µM | 18.4 µM | 
CC(C)(C)c1ccc(/C=N/Nc2ncnc3sc4c(c23)CCCC4)cc1 | 6.4 µM | 1.7 µM | 1.2 | 15.7 µM | 6.4 µM | 6.3 µM | 3.8 | > 250 µM | 21.9 µM | 30.3 µM | 23.2 µM | 11.2 µM | 6.6 µM | 13.7 µM | 
NNc1ncnc2sc3c(c12)CCCC3 | 9.6 µM | 54.4 µM | 1.9 | 20.7 µM | 11.1 µM | 9 µM | 0.6 | 374 µM (≈ 82.5 µg/mL) | 13.9 µM | 24.6 µM | < 4.5 µM | 21.3 µM | 33.8 µM | 40.9 µM | 0.3
C(=N\Nc1ncnc2sc3c(c12)CCCC3)/c1ccc[nH]1 | 1.7 µM | 10.1 µM | 0.1 | 3.8 µM | 1.9 µM | 0.4 µM | 1 | 20.8 µM (≈ 6.19 µg/mL) | 4.6 µM | 2.5 µM | 2.2 µM | 22.9 µM | 9.7 µM | 3.4 µM | 0.6
COc1cccc(/C=N/Nc2ncnc3sc4c(c23)CCCC4)c1 | 16.2 µM | 36.1 µM | 0.9 | 7.4 µM | 15.5 µM | 14.9 µM | 0.5 | 119 µM (≈ 40.4 µg/mL) | 17.7 µM | 143 µM | 17.6 µM | 16.9 µM | 16.3 µM | 14.8 µM | 0.6
C(=N\Nc1ncnc2sc3c(c12)CCCC3)/c1ccc2c(c1)OCO2 | > 250 µM | 29.4 µM | 0.7 | > 250 µM | > 250 µM | 117 µM | 0.6 | > 250 µM | > 250 µM | > 250 µM | > 250 µM | 22.8 µM | 16.3 µM | 17 µM | 
C=CCOc1cc(/C=N/Nc2ncnc3sc4c(c23)CCCC4)cc(OCC=C)c1Br | 3.1 µM | 5.3 µM | 0.4 | 3.9 µM | 3.9 µM | 3.8 µM | 0.7 | > 200 µM | < 2 µM | 12.8 µM | < 2 µM | 15.4 µM | 3.5 µM | 6 µM | 
CC(C)=NNc1ncnc2sc3c(c12)CCCC3 | 9.3 µM | 40.6 µM | 2.7 | 33 µM | 13.6 µM | 12.2 µM | 5.9 | 240 µM (≈ 62.4 µg/mL) | 11.6 µM | 23.3 µM | > 3.5 µM | 14.1 µM | 238 µM | 38.4 µM | 0.5
Fc1ccc(/C=N/Nc2ncnc3sc4c(c23)CCCC4)cc1 | 9.4 µM | 9.7 µM | 1 | 10.4 µM | 8.9 µM | 7.4 µM | 1 | 71.1 µM (≈ 23.2 µg/mL) | 13.9 µM | 17.6 µM | 20.5 µM | 18.4 µM | 9.4 µM | 18.4 µM | 0.6
CC(C)(C)/C=N/Nc1ncnc2sc3c(c12)CCCC3 | 24.5 µM | 113 µM |  | 33 µM | 27.5 µM | 26 µM | 1.6 | 299 µM (≈ 86.3 µg/mL) | 25.1 µM | 32.7 µM | 7.3 µM | > 25 µM | 176 µM |  | 0.3
C(=N\Nc1ncnc2sc3c(c12)CCCC3)/c1cccc2ccccc12 | 19.9 µM | 12.7 µM | 0.2 | 6.2 µM | 4.7 µM | 6.3 µM | 1.3 | > 250 µM | 24.1 µM | 18.4 µM | 16.7 µM | 13 µM | 16.6 µM | 2.8 µM | 
